Patent US20200138921A1, “METHODS OF PREVENTING AND TREATING DISEASES CHARACTERIZED BY SYNAPTIC DYSFUNCTION AND NEURODEGENERATION INCLUDING ALZHEIMER'S DISEASE” (The Trustees of Columbia University in the City of New York, priority 2017, published 2020)

Key:
Format in all cases: cell-based, rat
Ube3A [1] = experiment: Ube3A protein degradation in B35 cells (cycloheximide chase); conditions: pre-treatment with STI
Method: FIG. 5A is a graph showing the quantification of Western blots of the levels of Ube3A and GAPDH (as house-keeping protein) of B35 cells treated with cycloheximide (CHX) or CHX and oAβ for 4, 8 and 16 hours. […] Graphs represent mean values and standard deviation. Significance determined by one-way ANOVA followed by Tukey Post Hoc multiple comparisons.

Ube3A [2] = experiment: Immunoprecipitation of HA-Ube3A and phospho-tyrosine immunoblot in B35 cells; conditions: B35 cells pre-treated with STI-571 for 1 hour prior to oAβ
Method: (§1) Hippocampal neuron cultures from both male and female rat embryos (E17-18) were prepared following a slightly modified version of the method of Brewer et al. 1996. Hippocampal neurons were kept in culture at 37° C. with 5% CO2 in Neurobasal medium (ThermoFisher) with B27 (ThermoFisher) supplement and Glutamax (ThermoFisher) and plated at a density of 2.5×10^5 cell/ml on dishes coated with poly-D-lysine (ThermoFisher). For the experiments, neurons were used after 14-21 days in vitro (DIV). Rat neuroblastoma B35 cells were cultured and maintained in DMEM (ThermoFisher) supplemented with 10% fetal bovine serum (FBS; Invitrogen) and Glutamax (ThermoFisher).
Cells were collected and homogenized with IP lysis buffer (ThermoFisher) supplemented with Halt protease and phosphatase inhibitor (ThermoFisher). Cell extracts were incubated overnight at 4° C. with 1.0 μg HA antibody (Cell Signaling) or mouse IgG (Cell Signaling) as a negative control Immunocomplexes were incubated with magnetic beads covalently coated with protein G (Invitrogen) on a rotator for 2 hours, at 4° C. The beads were then pelleted with a magnet and washed 3 times with 1× cell lysis buffer (Cell Signaling) supplemented with complete mini protease inhibitor mixture (Roche). The immunocomplexes were resuspended in cell lysis buffer, LDS-sample buffer (Invitrogen), […] dithiothreitol (DTT), and analyzed by Western blotting. […]

[3] = test system: primary hippocampal neurons; experiment: Dendritic spine density in cultured hippocampal neurons (DiOlistic labeling); conditions: siRNA pre-treatment, oAβ 24 hours
Method: The protocol for diolistic labeling of neurons was adapted from Gan et al. 2000 and Gan et al. 2009. Briefly, 100 mg of tungsten particles (1.1 μm diameter; Bio-Rad) were thoroughly precipitated with 5.0 mg of lipophilic dye (DiI; ThermoFisher) and dissolved in 100 μl of methylene chloride. Dye-coated particles were shot 2-3 times into the cells using the Helios gene gun system (Bio-Rad) and left in 0.1 M PBS overnight to allow dye diffusion along neuronal processes. Cells were post-fixed with 4% paraformaldehyde (Pierce) for 1 hour to preserve staining, then mounted onto glass slides using Gel Mount (Biomeda) and stored at 4° C. in the dark.
Labeled neurons were imaged using the Laser Scanning Microscope (LSM) 510 Meta confocal microscope (Zeiss), equipped with 40×1.3 NA and 100×1.4 NA oil-immersion objectives. The NIH Image software program ImageJ was used the quantify diolistic-labeled cultured neurons. An average of 12 compressed images (20 μm thick) consisting of pyramidal neurons were quantified for each treatment. Spines were counted with NeuronStudio software in a blinded manner and spine density was represented in number of spine per μm dendritic length. Statistical analysis was performed using the statistics package GraphPad Prism.
To further test whether increasing Ube3A could rescue the effects of oAβ, cultured primary hippocampal neurons (14 DIV) were pretreated with 300 nM of TOP or control PBS. The neurons were then treated with oAβ for 24 hours, and whole cell lysates prepared for Western blot analysis, or fixed for microscopy.

RhoA-GTP = experiment: Rho-GTPase activity pull-down assay in hippocampal neurons; conditions: siRNA 24 hours prior to oAβ for 8 hours
Method: Rho-GTPase pull-down assays were performed following the manufacturer's protocol (Cytoskeleton, Inc.). Briefly, cells were washed once with ice-cold PBS and lysed with RIPA/M-PER buffer (1:1; ThermoFisher). Lysates were incubated on ice for 5 minutes, and centrifuged (12,000 g) for 5 minutes. 30 μl was used for input and the remaining lysates were incubated with Rhotekin-RBD (RhoA) or PAK-RBD (Rac1) protein beads (25 μl) by rotating for 1 hour at 4° C. Beads were washed with ice-cold PBS (500 μl, 3×) and collected, and bound proteins were eluted with 1× sample buffer (30 μl). Input and eluted samples were then analyzed by gel electrophoresis and Western blotting using either a RhoA or Rac1-specific antibody.
To test whether increasing Ube3A could rescue the effects of oAβ, cultured primary hippocampal neurons (14 DIV) were pretreated with 300 nM of TOP or control PBS. At day 3 the cells were treated with oligomeric Aβ for 6 hours and whole cell lysates prepared for Western blot analysis of Ube3A protein levels and levels of active GTPase levels including RhoA-GTP, Rac1-GTP and Cdc42-GTP.

Ephexin-5 = experiment: Western blot of Ephexin-5 in cultured primary hippocampal neurons; conditions: hippocampal neurons, Penetratin-1-linked siRNA for 24 hours
Method: as §1
Whole frozen mouse hippocampi, human brain specimens, and cultured cells were homogenized in RIPA buffer (ThermoFisher) supplemented with protease and phosphatase inhibitor cocktail (ThermoFisher), using a Teflon dounce homogenizer and centrifuged at 14,000 rpm for 10 minutes at 4° C. Supernatants were collected, normalized by BCA assay (ThermoFisher), and prepared for loading using sample buffer (SB) 4× (ThermoFisher) and dithiothreitol (DTT) 10× (ThermoFisher).
Cultured primary hippocampal neurons (14 DIV) were treated with 300 nM of a topoisomerase type I inhibitor, topotecan (TOP) or a vehicle control as described in Huang et al. 2012. Some cells were treated for 24 hours and some for 72 hours. All cells were harvested and whole cell lysates prepared for Western blot analysis of Ube3A and Ephixin-5.

Q: With `Cc1ccc(NC(=O)c2ccc(CN3CCN(C)CC3)cc2)cc1Nc1nccc(-c2cccnc2)n1` [STI-571] as the molecule, how does the “oAβ-induced decrease in Ube3A protein” value (Ube3A [1]) read?
A: completely blocked

Q: What about the “Ube3A phosphorylation by oAβ” value (Ube3A [2]) of the same molecule?
A: complete abolishment

Q: For “Penetratin-1-linked siRNA: Ephexin-5 siRNA (SEQ ID NO: 1 and 2) cross-linked via a Cys-Cys bond to the delivery peptide Penetratin-1 (chain 1 GUCCUUUCUCCGUGUAUGUUU; chain 2 ACAUACACGGAGAAAGGACUU; Penetratin-1 peptide attached via Cys-Cys disulfide, further chemistry not given here)”, which “loss of dendritic spine in neurons treated with oAβ” value [3] is on record?
A: completely rescued

Q: And the “oAβ-induced upregulation of RhoA activity” value (RhoA-GTP)?
A: completely blocked

Q: And the “levels of Ephexin-5” value (Ephexin-5)?
A: depleted
